Reference: the supplement of paper PMC10477900
Where a name gives a salt, the structure may show the parent alone.

Legend:
HCT116 [1] = experiment: viability inhibition vs untreated; higher = more cytotoxic; conditions: 72 h
HCT116 [2] = conditions: 72 h
Description: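 HCT116 control and MTA1-KO (CRISPR) HCT116 cells were seeded in 384-well plates (800 cells/well), treated 16 h later with 237 metabolism-related anticancer drugs at five doses (10 uM, 2 uM, 400 nM, 80 nM, 16 nM) for 72 h, two replicates; viability by CCK8. Values are % inhibition of viability relative to untreated cells, plus fitted IC50.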

| Compound | viability inhibition (HCT116 [1]; genotype: MTA1-KO, 16 nM) | viability inhibition (HCT116 [1]; genotype: MTA1-KO, 80 nM) | viability inhibition (HCT116 [1]; genotype: MTA1-KO, 400 nM) | viability inhibition (HCT116 [1]; genotype: MTA1-KO, 2000 nM) | viability inhibition (HCT116 [1]; genotype: MTA1-KO, 10000 nM) | viability inhibition (HCT116 [1]; genotype: control, 16 nM) | viability inhibition (HCT116 [1]; genotype: control, 80 nM) | viability inhibition (HCT116 [1]; genotype: control, 400 nM) | viability inhibition (HCT116 [1]; genotype: control, 2000 nM) | viability inhibition (HCT116 [1]; genotype: control, 10000 nM) | IC50 (HCT116 [2]; genotype: MTA1-KO) | IC50 (HCT116 [2]; genotype: control) |
| --- | --- | --- | --- | --- | --- | --- | --- | --- | --- | --- | --- | --- |
| O=C(O[C@@H]1Cc2c(O)cc(O)cc2O[C@@H]1c1cc(O)c(O)c(O)c1)c1cc(O)c(O)c(O)c1 [(-)-Epigallocatechin Gallate] | 13% | -1.62% | 5.38% | 12% | 19.4% | -8.68% | -5.93% | -14.9% | -4.61% | -3.45% | > 10 µM | > 10 µM |
| O=c1oc2c(O)c(O)cc3c(=O)oc4c(O)c(O)cc1c4c23 [Ellagic acid] | -9.03% | -12.1% | -9.22% | -2.14% | -6.22% | -17.2% | -19% | -17.4% | -13.6% | -11.3% | > 10 µM | > 10 µM |
| CC(C)(CCCCCC(O)CCCCCC(C)(C)C(=O)O)C(=O)O [ETC1002] | 2.14% | -10.3% | -6.64% | -17.1% | -9.91% | 10.7% | -0.834% | -5.92% | -6.48% | -5.51% | > 10 µM | > 10 µM |
| C=C1C(=O)O[C@H]2[C@H]1CC/C(C)=C/CC[C@@]1(C)O[C@@H]21 [Parthenolide] | 13.7% | 23.4% | 17.3% | 27.8% | 114% | -4.45% | 2.37% | -14.2% | -17.8% | 100% | 2.9 µM | 6.58 µM |
| O=c1[nH]cc(F)c(=O)[nH]1 [Fluorouracil] | -23.1% | -26% | -27.2% | 1.88% | 53.9% | -8.89% | -1.82% | 8.13% | 22.2% | 83.9% | 6.47 µM | 3.81 µM |
| C[C@]12CC[C@H](O)C[C@H]1CC[C@@H]1[C@@H]2CC[C@]2(C)[C@@H](c3ccc(=O)oc3)CC[C@]12O [Bufalin] | 15.4% | 39% | 58.6% | 83.8% | 91% | 65.7% | 67.6% | 69.3% | 77.6% | 80.9% | 0.143 µM | < 0.016 µM |
| CC(=O)Nc1nnc(S(N)(=O)=O)s1 [Acetazolamide] | -8.41% | -9.41% | -15.4% | -8.8% | 6.99% | -4.74% | -13.5% | -4.54% | -3.32% | -0.433% | > 10 µM | > 10 µM |
| O=S(=O)(NCCSSCCNS(=O)(=O)c1cc(Cl)ccc1Cl)c1cc(Cl)ccc1Cl [KC7F2] | 3.77% | 14.6% | 13.5% | 9.73% | 16.2% | 25.3% | 14.3% | 11.1% | 9.06% | 24.4% | > 10 µM | > 10 µM |
| COc1ccc(Cc2cnc(N)nc2N)cc1OC [Diaveridine] | 9.72% | -12.4% | -14.2% | -12.8% | 8.55% | 7.02% | -9.3% | -5.19% | -12.6% | 10.2% | > 10 µM | > 10 µM |
| O=C(C[C@H]1NCCC[C@@H]1O)Cn1cnc2cc(Br)c(Cl)cc2c1=O [Halofuginone hydrobromide] | 2.99% | -4.56% | 73.6% | 106% | 103% | -19.5% | -8.31% | 72.1% | 111% | 101% | 0.374 µM | 0.371 µM |
| Cc1c(NC(=O)c2cc(C(N)=O)nc3cc(F)ccc23)c(C(F)(F)F)nn1Cc1ccc(C#N)cc1 [BAY876] | 50.2% | 73% | 82% | 90.4% | 110% | 72.8% | 89.8% | 97.7% | 103% | 102% | < 0.016 µM | < 0.016 µM |
| CN(C)C(=N)N=C(N)N [Metformin hydrochloride] | -20.9% | -15.7% | -16.8% | -16.1% | -14.1% | -3.73% | -8.51% | 4.88% | 7.24% | 3.98% | > 10 µM | > 10 µM |
| CCN[C@H]1C[C@H](C)S(=O)(=O)c2sc(S(N)(=O)=O)cc21 [Dorzolamide hydrochloride] | -14.8% | -12.5% | -7.44% | -8.97% | -17.4% | -5.26% | -2.58% | -9.91% | -10% | -10.3% | > 10 µM | > 10 µM |
| O=C(/C=C/c1ccc2ccc(C(F)(F)F)cc2n1)c1ccncc1 [PFK158] | -5.2% | -29.6% | -31.5% | -28.1% | 121% | 8.64% | -5.17% | 1.7% | -5.11% | 96.2% | 3.1 µM | 3.89 µM |
